Data: patent publication US20240116951A1, “HETEROCYCLIC COMPOUNDS AND USES THEREOF” (Kumquat Biosciences Inc., priority 2022, published 2024)

Assays:
Format in all cases: binding
KRAS G12D = biological target: T1, KRAS G12D (Homo sapiens, UniProt P01116, G12D); assay: HTRF assay of K-Ras G12D interaction with SOS1 (PPI-HTRF); conditions: HTRF, 5 nM KRAS G12D; read-out: PPI-HTRF-5 nM KRAS G12D
T1 construct: made in house; host or cells: E. coli, e.g. BL21 (DE3)
Procedure, shortened: (§1)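 HTRF readout of GST-tagged K-Ras (WT or mutant) binding to His-hSOS1, using anti-GST-Eu donor and anti-6His-XL665 acceptor in HEPES pH 7.4 buffer with DTT, BSA and Igepal. Read after about 10 min or longer; duplicate compound dilutions from 10 μM. IC50 from 665/620 nm ratio.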

KRAS G12S = biological target: T2, KRAS G12S (Homo sapiens, UniProt P01116, G12S); assay: HTRF assay of K-Ras G12S interaction with SOS1 (PPI-HTRF); conditions: 5 nM KRAS G12S, read-out: PPI-HTRF-5 nM KRAS G12S
T2 construct: made in house; host or cells: E. coli, e.g. BL21 (DE3)
Procedure, shortened: as §1

KRAS WT = biological target: T3, KRAS WT (Homo sapiens, UniProt P01116); assay: HTRF assay of wildtype K-Ras interaction with SOS1 (PPI-HTRF); conditions: HTRF, 5 nM KRAS WT; read-out: PPI-HTRF-5 nM KRAS WT
T3 construct: made in house; host or cells: E. coli, e.g. BL21 (DE3)
Procedure, shortened: as §1

T1 sequence (P01116 1-188 isoform P01116-2 G12D): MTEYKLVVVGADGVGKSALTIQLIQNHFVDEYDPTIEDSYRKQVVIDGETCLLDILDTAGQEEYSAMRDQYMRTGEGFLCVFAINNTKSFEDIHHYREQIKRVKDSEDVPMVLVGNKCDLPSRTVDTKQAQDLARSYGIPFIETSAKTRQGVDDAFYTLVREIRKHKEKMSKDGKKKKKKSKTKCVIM
T3 sequence (P01116 1-188 isoform P01116-2): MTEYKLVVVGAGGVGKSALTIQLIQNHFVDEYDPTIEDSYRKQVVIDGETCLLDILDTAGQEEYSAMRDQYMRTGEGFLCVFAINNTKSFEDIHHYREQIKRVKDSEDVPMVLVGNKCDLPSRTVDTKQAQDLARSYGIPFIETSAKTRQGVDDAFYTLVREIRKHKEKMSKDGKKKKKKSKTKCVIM
T2 sequence (P01116 1-188 isoform P01116-2 G12S): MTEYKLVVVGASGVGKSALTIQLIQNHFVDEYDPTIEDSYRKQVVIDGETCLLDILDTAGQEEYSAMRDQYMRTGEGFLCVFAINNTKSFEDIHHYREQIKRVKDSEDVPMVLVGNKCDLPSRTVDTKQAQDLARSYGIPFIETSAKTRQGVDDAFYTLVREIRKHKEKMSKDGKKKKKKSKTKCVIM

Row | SMILES | IC50 (KRAS G12D) | IC50 (KRAS G12S) | IC50 (KRAS WT)
1 | CN(C)CC1(COc2nc(N3CCC4(CCN4C(=O)n4cncn4)C3)c3cc(Cl)c(-c4ccc(F)c5sc(N)c(C#N)c45)c(F)c3n2)CC1 (stereo not drawn) [Compound 315, 4-(4-(1-(1H-1,2,4-triazole-1-carbonyl)-1,6-diazaspiro[3.4]octan-6-yl)-6-chloro-2-((1-((dimethylamino)methyl)cyclopropyl)methoxy)-8-fluoroquinazolin-7-yl)-2-amino-7-fluorobenzo[b]thiophene-3-carbonitrile] | < 5 µM | < 5 µM | < 5 µM
2 | N#CCC(=O)N1CC[C@@]12CCN(c1nc(OC[C@@]34CCCN3C[C@H](F)C4)nc3c(F)c(-c4ccc(F)c5sc(N)c(C#N)c45)c(Cl)cc13)C2 [Compound 316] | < 5 µM | < 5 µM | < 5 µM
3 | Nc1nc2c(-c3c(Cl)cc4c(N5CCC6(CCN6C(=O)n6cncn6)C5)nc(OC[C@@]56CCCN5C[C@H](F)C6)nc4c3F)ccc(F)c2s1 (stereo partly drawn) [Compound 264, (6-(7-(2-amino-7-fluorobenzo[d]thiazol-4-yl)-6-chloro-8-fluoro-2-(((2R,7aS)-2-fluorotetrahydro-1H-pyrrolizin-7a(5H)-yl)methoxy)quinazolin-4-yl)-1,6-diazaspiro[3.4]octan-1-yl)(1H-1,2,4-triazol-1-yl)methanone] | < 5 µM | < 5 µM | < 5 µM
4 | N#Cc1c(N)sc2c(F)ccc(-c3c(F)c4nc(OC[C@@]56CCCN5C[C@H](F)C6)nc(N5CCC6(CCN6C(=O)n6cncn6)C5)c4c(=O)n3C3CC3)c12 (stereo partly drawn) [Compound 267, 4-(4-(1-(1H-1,2,4-triazole-1-carbonyl)-1,6-diazaspiro[3.4]octan-6-yl)-6-cyclopropyl-8-fluoro-2-(((2R,7aS)-2-fluorotetrahydro-1H-pyrrolizin-7a(5H)-yl)methoxy)-5-oxo-5,6-dihydropyrido[4,3-d]pyrimidin-7-yl)-2-amino-7-fluorobenzo[b]thiophene-3-carbonitrile] | < 5 µM | < 5 µM | < 5 µM
5 | CC(C)=C(C#N)C(=O)N1CCC12CCN(c1nc(OC[C@@]34CCCN3C[C@H](F)C4)nc3c(F)c(-c4ccc(F)c5sc(N)c(C#N)c45)c(Cl)cc13)C2 (stereo partly drawn) [Compound 297, 2-amino-4-(6-chloro-4-(1-(2-cyano-3-methylbut-2-enoyl)-1,6-diazaspiro[3.4]octan-6-yl)-8-fluoro-2-(((2R,7aS)-2-fluorotetrahydro-1H-pyrrolizin-7a(5H)-yl)methoxy)quinazolin-7-yl)-7-fluorobenzo[b]thiophene-3-carbonitrile] | < 5 µM | < 5 µM | < 5 µM
6 | C[C@H](Oc1nc(N2CCC3(CCN3)C2)c2cc(Cl)c(-c3ccc(F)c4sc(N)c(C#N)c34)c(F)c2n1)[C@@H]1CCCN1C (stereo partly drawn) [Compound 213, 2-amino-4-(6-chloro-8-fluoro-2-((S)-1-((S)-1-methylpyrrolidin-2-yl)ethoxy)-4-(1,6-diazaspiro[3.4]octan-6-yl)quinazolin-7-yl)-7-fluorobenzo[b]thiophene-3-carbonitrile] | < 5 µM | < 5 µM | < 5 µM
7 | C[C@H](Oc1nc(N2CCC3(CCCN3C(=O)n3cncn3)C2)c2cc(Cl)c(-c3ccc(F)c4sc(N)c(C#N)c34)c(F)c2n1)[C@@H]1CCCN1C (stereo partly drawn) [Compound 241, 4-(4-(1-(1H-1,2,4-triazole-1-carbonyl)-1,7-diazaspiro[4.4]nonan-7-yl)-6-chloro-8-fluoro-2-((S)-1-((S)-1-methylpyrrolidin-2-yl)ethoxy)quinazolin-7-yl)-2-amino-7-fluorobenzo[b]thiophene-3-carbonitrile] | < 5 µM | < 5 µM | < 5 µM
8 | N#Cc1c(N)sc2c(F)ccc(-c3c(Cl)cc4c(N5CCC6(CCN6C(=O)OC(C(F)(F)F)C(F)(F)F)C5)nc(OC[C@@]56CCCN5C[C@H](F)C6)nc4c3F)c12 (stereo partly drawn) [Compound 237, 1,1,1,3,3,3-hexafluoropropan-2-yl 6-(7-(2-amino-3-cyano-7-fluorobenzo[b]thiophen-4-yl)-6-chloro-8-fluoro-2-(((2R,7aS)-2-fluorotetrahydro-1H-pyrrolizin-7a(5H)-yl)methoxy)quinazolin-4-yl)-1,6-diazaspiro[3.4]octane-1-carboxylate] | > 5 µM | < 5 µM | < 5 µM
9 | C[C@H](Oc1nc(N2CCC3(CCN3C(=O)[C@@H]3C[C@H]3C#N)C2)c2cc(Cl)c(-c3ccc(F)c4sc(N)c(C#N)c34)c(F)c2n1)[C@@H]1CCCN1C (stereo partly drawn) [Compound 206, 2-amino-4-(6-chloro-4-(1-((1R,2R)-2-cyanocyclopropane-1-carbonyl)-1,6-diazaspiro[3.4]octan-6-yl)-8-fluoro-2-((S)-1-((S)-1-methylpyrrolidin-2-yl)ethoxy)quinazolin-7-yl)-7-fluorobenzo[b]thiophene-3-carbonitrile] | < 5 µM | < 5 µM | < 5 µM
10 | N#Cc1c(N)sc2c(F)ccc(-c3c(Cl)cc4c(N5CC[C@@]6(CCN6C(=O)n6cncn6)C5)nc(OC[C@@]56CCCN5C[C@H](F)C6)nc4c3F)c12 (single isomer, unassigned) [Compound 234] | < 5 µM | < 5 µM | < 5 µM
11 | CCc1ncn(C(=O)N2CCC23CCN(c2nc(OC[C@@]45CCCN4C[C@H](F)C5)nc4c(F)c(-c5ccc(F)c6sc(N)c(C#N)c56)c(Cl)cc24)C3)n1 (stereo partly drawn) [Compound 314, 2-amino-4-(6-chloro-4-(1-(3-ethyl-1H-1,2,4-triazole-1-carbonyl)-1,6-diazaspiro[3.4]octan-6-yl)-8-fluoro-2-(((2R,7aS)-2-fluorotetrahydro-1H-pyrrolizin-7a(5H)-yl)methoxy)quinazolin-7-yl)-7-fluorobenzo[b]thiophene-3-carbonitrile] | < 5 µM | < 5 µM | < 5 µM
12 | C[C@H](Oc1nc(N2CCC3(CCN3C(=O)[C@@H]3C[C@H]3F)C2)c2cc(Cl)c(-c3ccc(F)c4sc(N)c(C#N)c34)c(F)c2n1)[C@@H]1CCCN1C (stereo partly drawn) [Compound 271, 2-amino-4-(6-chloro-8-fluoro-4-(1-((1S,2R)-2-fluorocyclopropane-1-carbonyl)-1,6-diazaspiro[3.4]octan-6-yl)-2-((S)-1-((S)-1-methylpyrrolidin-2-yl)ethoxy)quinazolin-7-yl)-7-fluorobenzo[b]thiophene-3-carbonitrile] | < 5 µM | < 5 µM | < 5 µM
13 | N#Cc1c(N)sc2c(F)ccc(-c3c(Cl)cc4c(N5CC6(CCN6C(=O)n6cncn6)C5)nc(OC[C@@]56CCCN5C[C@H](F)C6)nc4c3F)c12 [Compound 238, 4-(4-(1-(1H-1,2,4-triazole-1-carbonyl)-1,6-diazaspiro[3.3]heptan-6-yl)-6-chloro-8-fluoro-2-(((2R,7aS)-2-fluorotetrahydro-1H-pyrrolizin-7a(5H)-yl)methoxy)quinazolin-7-yl)-2-amino-7-fluorobenzo[b]thiophene-3-carbonitrile] | < 5 µM | < 5 µM | < 5 µM
14 | C[C@@H]1C[C@@]2(CCN2)CN1c1nc(OC[C@@]23CCCN2C[C@H](F)C3)nc2c(F)c(-c3ccc(F)c4sc(N)c(C#N)c34)c(Cl)cc12 [Compound 335, 2-amino-4-(6-chloro-8-fluoro-2-(((2R,7aS)-2-fluorotetrahydro-1H-pyrrolizin-7a(5H)-yl)methoxy)-4-((4S,7R)-7-methyl-1,6-diazaspiro[3.4]octan-6-yl)quinazolin-7-yl)-7-fluorobenzo[b]thiophene-3-carbonitrile] | < 5 µM | < 5 µM | < 5 µM
15 | N#Cc1c(N)sc2c(F)ccc(-c3c(Cl)cc4c(N5CCC6(CCCN6)C5)nc(OC[C@@]56CCCN5C[C@H](F)C6)nc4c3F)c12 (stereo partly drawn) [Compound 284, 2-amino-4-(6-chloro-8-fluoro-2-(((2R,7aS)-2-fluorotetrahydro-1H-pyrrolizin-7a(5H)-yl)methoxy)-4-(1,7-diazaspiro[4.4]nonan-7-yl)quinazolin-7-yl)-7-fluorobenzo[b]thiophene-3-carbonitrile] | < 5 µM | < 5 µM | < 5 µM
16 | Cc1nc(Cl)n(C(=O)N2CCC23CCN(c2nc(OC[C@@]45CCCN4C[C@H](F)C5)nc4c(F)c(-c5ccc(F)c6sc(N)c(C#N)c56)c(Cl)cc24)C3)n1 (stereo partly drawn) [Compound 311, 2-amino-4-(6-chloro-4-(1-(5-chloro-3-methyl-1H-1,2,4-triazole-1-carbonyl)-1,6-diazaspiro[3.4]octan-6-yl)-8-fluoro-2-(((2R,7aS)-2-fluorotetrahydro-1H-pyrrolizin-7a(5H)-yl)methoxy)quinazolin-7-yl)-7-fluorobenzo[b]thiophene-3-carbonitrile] | < 5 µM | < 5 µM | < 5 µM
17 | N#Cc1c(N)sc2c(F)ccc(-c3c(Cl)cc4c(N5CCCCC6(CCCN6C(=O)n6cncn6)C5)nc(OC[C@@]56CCCN5C[C@H](F)C6)nc4c3F)c12 (mixture of isomers) [Compound 349, 4-(4-(1-(1H-1,2,4-triazole-1-carbonyl)-1,7-diazaspiro[4.6]undecan-7-yl)-6-chloro-8-fluoro-2-(((2R,7aS)-2-fluorotetrahydro-1H-pyrrolizin-7a(5H)-yl)methoxy)quinazolin-7-yl)-2-amino-7-fluorobenzo[b]thiophene-3-carbonitrile] | < 5 µM | < 5 µM | < 5 µM
